Marks after values point to notes of the source that are not given here.
Key:
[1] = tested on: HepG2 cells; assay: Toxicity to HepG2 cells judged from cell morphology during treatment; type: cell-based, human; settings: HepG2, 24 h incubation, 60 μM Ru
Description: Human hepatoma (HepG2) cells were originally received from the American Type Culture Collection (ATCC, Cat. No. HB-8065) and cultured as described previously. This cell line was used for Tf-dependent metal uptake studies because of the high expression levels of human TfR1 [43]. For treatments, the cells were grown to confluence in 24-well plates, using Advanced DMEM (Dulbecco’s modified Eagle’s minimal essential medium, Invitrogen Cat. No. 12491-015), supplemented with L-glutamine (2.0 mM), antibiotic-antimycotic mixture (100 mg mL^−1 penicillin, 100 mg mL^−1 steptomycin and 0.25 mg mL^−1 amphotericin B) and fetal calf serum (heat-inactivated, 2% v/v). Confluent cell layers were washed with serum-free treatment medium (DMEM, Invitrogen Cat. No. 19938-025), supplemented with glutamine, antibiotic-antimycotic mixture and 1.0 mg mL^−1 AlbuMax (Gibco Cat. No. 11020-021). […] After washing, the wells were filled with the treatment medium containing metal additions (detailed in B1–B9 of Table 1). The treatment media were sterilized by filtration through 0.2 µm membrane filters, and pre-equilibrated for 24 h at 310 K and 5% CO2 prior to the addition to cells, except for sample B1 that was used immediately after preparation. […]
Cellular Fe levels were also measured to control the Tf-mediated Fe uptake. […]

[2] = tested on: protein in cell culture medium; assay: Ru–protein binding in cell culture medium (gel filtration, GFAAS); type: in vitro ADME; settings: medium after 24 h cell treatment; gel filtration >6 kDa; 60 μM Ru, added HSA or Tf 30 μM, ~15 μM BSA
Description: An aliquot (50 µL) of cell culture medium from each well was passed through a separate Bio-Rad P6 centrifugal gel filtration column that was pre-saturated with PBS, according to manufacturer’s instructions. The eluants (50 ± 5 µL volume) contained protein-bound Ru fractions (>6 kDa molecular mass). The protein recovery, measured by Bradford assays, exceeded 95%. Another 50 µL sample of each medium was taken into separate tubes. Both the original and gel-filtered media samples were digested with 0.20 mL of 65% (v/v) HNO3 for 24 h. The digests were diluted with 0.75 mL of 0.10 M HCl, and the Ru content in the samples was determined by GFAAS. The percentage of protein binding was determined from the ratio of Ru content in the gel-filtered and original media samples [30, 31].

[3] = tested on: HepG2 cells; assay: Cellular Ru uptake by HepG2 cells (ICP-MS); type: cell-based, human; settings: HepG2, 24 h; 60 μM Ru, added HSA or Tf 30 μM; serum-free DMEM with ~15 μM BSA; media pre-equilibrated 24 h except B1
Description: (§1) Human hepatoma (HepG2) cells were originally received from the American Type Culture Collection (ATCC, Cat. No. HB-8065) and cultured as described previously. This cell line was used for Tf-dependent metal uptake studies because of the high expression levels of human TfR1 [43]. For treatments, the cells were grown to confluence in 24-well plates, using Advanced DMEM (Dulbecco’s modified Eagle’s minimal essential medium, Invitrogen Cat. No. 12491-015), supplemented with L-glutamine (2.0 mM), antibiotic-antimycotic mixture (100 mg mL^−1 penicillin, 100 mg mL^−1 steptomycin and 0.25 mg mL^−1 amphotericin B) and fetal calf serum (heat-inactivated, 2% v/v). Confluent cell layers were washed with serum-free treatment medium (DMEM, Invitrogen Cat. No. 19938-025), supplemented with glutamine, antibiotic-antimycotic mixture and 1.0 mg mL^−1 AlbuMax (Gibco Cat. No. 11020-021). […] After washing, the wells were filled with the treatment medium containing metal additions (detailed in B1–B9 of Table 1). The treatment media were sterilized by filtration through 0.2 µm membrane filters, and pre-equilibrated for 24 h at 310 K and 5% CO2 prior to the addition to cells, except for sample B1 that was used immediately after preparation. All the treatments were performed in triplicate, using random well positions to avoid experimental bias.
(§2) After 24 h incubation with the treatment media (B1–B9 in Table 1), the medium from each well was collected for the determination of Ru–protein binding and BLI analyses, and the wells were washed twice with PBS (0.50 mL/well). […]
(§3) The values of metal uptake were normalized using protein content in cell lysates. For protein determination, Bradford reagent (Sigma Cat. No B6916; 98 µL) was mixed with a small aliquot (2.0 µL) of each cell lysate, and the absorbance at 600 nm was measured using a Victor V3 plate reader. […] The test and calibration samples were analyzed in triplicate. […]

[4] = tested on: HepG2 cells; assay: Cellular Fe content of HepG2 cells (ICP-MS); type: cell-based, human; settings: HepG2, 24 h; 60 μM Ru, added HSA or Tf 30 μM; serum-free DMEM with ~15 μM BSA
Description: as §1, §2, §3

[5] = tested on: T1, recombinant human transferrin receptor 1 (TfR1); assay: BLI of Tf–TfR1 binding in dilute human serum pre-treated with metal complexes; settings: serum incubated with 100 μM Ru complex or 60 μM Fe(III) as citrate
T1 construct: extracellular domain (Cyst89-Phe760), (His)6-tagged at the N-terminus; purchased Sino Biological, Beijing, China (TfR1); Sigma (human serum, Cat. No. H4522, as source of Tf) 11020-H07H
Description: The effects of Ru complexes on the Tf cycle were determined by BLI using previously developed protocols. The instrument used was a single-channel BLItz analyser (ForteBio, Menlo Park, CA, USA) with a tube holder (250 µL solution volume) and Ni(II)–nta coated optical probes held at 295 ± 1 K. Measurements used the Advanced Kinetics mode. […] Solutions of metal–Tf adducts (typical final Tf concentrations 150 nM or 1.0 µM) were prepared in the binding buffer (Section 2.1). The pH 7.4 binding buffer was used for Tf binding and dissociation from the probe, and the pH 5.6 buffer (Section 2.1) was used to mimic the endosomal step of the Tf cycle. Metal–Tf solutions (A1–A9 in Table 1) were diluted 100–400-fold, cell culture media were diluted 30-fold, and human serum samples were diluted 200-fold with the binding buffer immediately before the BLI measurements. All BLI data were background corrected by using data from buffer only runs with the same TfR1-loaded optical probe. Consistent BLI results were obtained in at least two independent measurements, using different probes and different batches of Tf solutions. Calculations of the Tf–TfR1 binding constants were performed using the 1:1 binding model (BLItz software, Version 1.1, Forte-Bio 2013), which can be used as a reasonable approximation of the physiological 2:2 Tf–TfR1 binding mechanism at low Tf concentrations. […]
(b) BLI response curves for dilute human serum samples in the presence or absence of metal complexes. Intact commercial human serum (Sigma H4522) was incubated with Fe(III)-citrate (60 µM) or with Ru complexes (100 µM) for 4 h at 310 K, then diluted 200-fold (to [Tf] ~ 150 nM) with the binding buffer (20 mM HEPES, 25 mM NaHCO3, 140 mM NaCl, pH = 7.4), and analyzed with the TfR1-loaded BLI probe. Designations of the steps in Tf cycle (A–D) correspond to those in Figure 1d-f, main text. Calculated KD values (1:1 binding model, BLItz software) were as follows: 8.0 nM (serum + Fe(III) citrate); or 28 ± 2 nM (serum in the presence or absence of Ru complexes). Typical anticancer Ru complexes, NAMI-A, KP1019 and RAPTA-C, were synthesized and characterized previously in the Lay group.
(1 picture or pasted object on this page, not shown here)

[6] = tested on: T2, recombinant human transferrin receptor 1 (TfR1); assay: BLI of Tf–TfR1 binding in dilute cell culture media after uptake experiments; settings: 1.0 µM human Tf, 295 K; serum-free DMEM with 1.0 mg mL−1 BSA collected after HepG2 uptake experiments, diluted 30-fold; 1:1 binding model
T2 construct: extracellular domain (Cyst89-Phe760), (His)6-tagged at the N-terminus; purchased Sino Biological, Beijing, China (TfR1)
Description: The effects of Ru complexes on the Tf cycle were determined by BLI using previously developed protocols. The instrument used was a single-channel BLItz analyser (ForteBio, Menlo Park, CA, USA) with a tube holder (250 µL solution volume) and Ni(II)–nta coated optical probes held at 295 ± 1 K. Measurements used the Advanced Kinetics mode. […] Solutions of metal–Tf adducts (typical final Tf concentrations 150 nM or 1.0 µM) were prepared in the binding buffer (Section 2.1). The pH 7.4 binding buffer was used for Tf binding and dissociation from the probe, and the pH 5.6 buffer (Section 2.1) was used to mimic the endosomal step of the Tf cycle. Metal–Tf solutions (A1–A9 in Table 1) were diluted 100–400-fold, cell culture media were diluted 30-fold, and human serum samples were diluted 200-fold with the binding buffer immediately before the BLI measurements. All BLI data were background corrected by using data from buffer only runs with the same TfR1-loaded optical probe. Consistent BLI results were obtained in at least two independent measurements, using different probes and different batches of Tf solutions. Calculations of the Tf–TfR1 binding constants were performed using the 1:1 binding model (BLItz software, Version 1.1, Forte-Bio 2013), which can be used as a reasonable approximation of the physiological 2:2 Tf–TfR1 binding mechanism at low Tf concentrations.
(a) BLI response curves for 1.0 µM of human Tf at 295 K in dilute cell culture media after Ru uptake experiments by HepG2 cells (Section 3.2 in the main text). Media (serum-free DMEM, containing 1.0 mg mL−1 BSA as a background protein, as well as KP1019 and/or Tf, as shown in the figure legend), were collected after the end of uptake experiments, then were diluted 30-fold with buffer (20 mM HEPES + 25 mM NaHCO3 + 140 mM NaCl, pH = 7.4) and applied to TfR1-loaded BLI probe. Designations of the steps in Tf cycle (A–D) correspond to those in Figure 1d-f, main text. Calculated KD values (1:1 binding model, BLItz software) were as […]

[7] = Particle size (protein aggregation) by dynamic light scattering; type: physicochemical; settings: DLS, 298 K; 10 μM Tf in binding buffer pH 7.4
Description: Protein samples (0.10 mM) were diluted 10-fold with binding buffer before the measurements. The measured parameters were the averages of 12–15 scans (scan time, 3 s). […] Analysis of Tf crystal structures that are available in the public domain from the Protein Data Bank (PDB) was performed with PyMOL software (version 2.1.1, Schrodinger LLC 2021, New York, NY, USA).

Row | Compound | % Ru–Protein (proportion of protein-bound Ru in cell culture medium) [2] | Fe Content (cellular metal content) [4] | Effect on Tf–TfR1 binding in whole human serum [5] | Mean Particle Size [7] [nm] | also measured
1 | [Cl-].[Cl-].[Cl-].[Cl-].[Ru+3].c1ccc2[nH+][nH]cc2c1.c1ccc2[nH]ncc2c1.c1ccc2[nH]ncc2c1 [KP1019 fresh] | 46 ± 4 molar % | 11.2 ± 6.5 ^f nmol per mg protein | – | – | Toxicity judged from cell morphology [1]: significant cell detachment; Ru Uptake (cellular metal content) [3]: 6.6 ± 2.8 ^e nmol per mg protein
2 | CS(C)=O.[Cl-].[Cl-].[Cl-].[Cl-].[Ru+3].c1c[nH+]c[nH]1.c1c[nH]cn1 [NAMI-A, (ImH)[Ru^IIICl4(Im)(S-dmso)]] | – | – | did not have any effect | – | –
3 | Cc1ccc(C(C)C)cc1.[Cl][Ru]([Cl])[PH]12CN3CN(CN(C3)C1)C2 [RAPTA-C, [Ru^II(η^6-p-cymene)Cl2(pta)]] | – | – | did not have any effect | – | –
4 | O=C([O-])CN(CC(=O)[O-])CC(=O)[O-].O=C([O-])CN(CC(=O)[O-])CC(=O)[O-].[Ru+3] [[Ru(nta)2]^3−, [Ru^III(nta)2]^3−] | 2 ± 1 ^g molar % | 1.4 ± 0.4 nmol per mg protein | – | – | Ru Uptake (cellular metal content) [3]: 0.09 ± 0.03 nmol per mg protein
5 | Fe2Tf: fully Fe(III)-saturated human transferrin | – | – | – | 7 ± 2 | Kd [6]: 22 nM
6 | Fe(III) citrate | – | – | significantly increased the binding affinity | – | –
7 | Ru2Tf: apoTf + 2.0 eq. [Ru^III(nta)2]^3−; Ru(III) bound to Fe(III) sites of transferrin | 74 ± 3 ^g molar % | 1.9 ± 0.7 nmol per mg protein | – | 7 ± 1 | –
8 | RuFeTf: apoTf + 1.0 eq. [Fe^III(nta)2]^3−, then 1.0 eq. [Ru^III(nta)2]^3−; mixed Ru(III)–Fe(III)–Tf adduct | – | – | – | 6.5 ± 1 | –
9 | apoTf: human apo transferrin | – | – | – | 7 ± 1 | Kd [6]: 32 nM
10 | monoFeTf: apoTf + 1.0 eq. [Fe^III(nta)2]^3−; mixture of FeCTf and FeNTf forms | – | – | – | 7 ± 1 | –
